# According to patent publication US6641848B1, “Saponin or sapogenol compositions for increasing collagen IV synthesis” (Parfums Christian Dior, priority 1998, dated 2003):
# Assays:
# collagen IV [1] = assay: Amount of collagen IV in normal human keratinocyte culture (ELISA), soya saponins with beta-ecdysone, 48 h; type: cell-based; details: beta-ecdysone alone, same experiment
# Description: (§1) The cultures of normal human keratinocytes (NHK) are grown from a surgical specimen of healthy skin. In the present study, the tests were carried out on a strain of cells, denoted by HK 44, originating from a facelift performed on a person.
# The keratinocytes are cultured in K-SFM growth medium, which is a complete specific keratinocyte culture medium (SFM=serum free medium) complemented with EGF (epidermal growth factor) and pituitary extract, said medium being marketed by Gibco, France. The cells were subcultured once from the primary culture in one passage, denoted by P1.
# The cells are inoculated in 96-well culture plates at a rate of 25,000 NHK per well in K-SFM. After 24 h of incubation, which is necessary for good adhesion of the cells, the inoculation medium is withdrawn and replaced with K-SFM diluted 50-fold in the same base medium, but devoid of EGF and pituitary extract. […]
# The controls will receive the same amount of DMSO solvent as for the product tested at a final concentration of 0.1%.
# The culture supernatants are recovered for carrying out an ELISA, as explained below.
# The protocol for assaying the collagen IV by an ELISA method is adapted from that described by DUMAS M. et al. in Mechanisms of Ageing and Development, 1994, 73, pages 179-187. […]
# (§2) The activity A of the product is expressed as a percentage and corresponds to the following formula: [formula] […]
# collagen IV [2] = assay: Amount of collagen IV in normal human keratinocyte culture (ELISA), soya seed saponins, 72 h; type: cell-based; details: 10 ng/ml
# Description: A soya seed extract commercially available under the reference SOY SELECT LOT 26040/2 from the Italian company Indena is used in this Example.
# According to the marketing information, this extract contains saponins of the “soya saponin” category in a proportion of 29 to 30% by dry weight, with a predominance of group B soya sapogenols.
# To validate the pertinence of the chosen experimental protocol, a series of these tests was carried out with a positive control, namely transforming growth factor beta (TGF-beta), which is known to increase the amount of collagen IV in a culture of human keratinocytes. Reference may be made to the article by Köning A. and Bruckner-Tuderman L., J. Cell. Biol., May 1992, 117(3), 679-85.
# as §1
# The keratinocytes are cultured in K-SFM growth medium, which is a complete specific keratinocyte culture medium (SFM=serum free medium) complemented with EGF (epidermal growth factor) and pituitary extract, said medium being marketed by Gibco, France. […]
# as §2
Compound,increase in the amount of collagen IV (collagen IV [1]),Q (ng collagen IV/100 μg proteins; at 72 h) (collagen IV [2]; NHK strain HK 44),A (%) (collagen IV [2]; vs DMSO control)
CC(C)(O)CC[C@@H](O)[C@](C)(O)[C@H]1CC[C@@]2(O)C3=CC(=O)[C@@H]4C[C@@H](O)[C@@H](O)C[C@]4(C)[C@H]3CC[C@]12C [beta-ecdysone],No increase,,
transforming growth factor beta [TGF-beta],,5.615 ± 0.595 ng collagen IV/100 μg proteins,+50%
